Earlier results on 2 compounds are cited in patent US20250295673A1, “TREATMENT OF BREAST CANCER” (priority 2024, published 2025).

Structures are written as SMILES. Entries after “also recorded” stand apart in the source; their conditions may differ.

The target in one data set is T1, SHBG (Homo sapiens, UniProt P04278).
T1 sequence (P04278 30-402): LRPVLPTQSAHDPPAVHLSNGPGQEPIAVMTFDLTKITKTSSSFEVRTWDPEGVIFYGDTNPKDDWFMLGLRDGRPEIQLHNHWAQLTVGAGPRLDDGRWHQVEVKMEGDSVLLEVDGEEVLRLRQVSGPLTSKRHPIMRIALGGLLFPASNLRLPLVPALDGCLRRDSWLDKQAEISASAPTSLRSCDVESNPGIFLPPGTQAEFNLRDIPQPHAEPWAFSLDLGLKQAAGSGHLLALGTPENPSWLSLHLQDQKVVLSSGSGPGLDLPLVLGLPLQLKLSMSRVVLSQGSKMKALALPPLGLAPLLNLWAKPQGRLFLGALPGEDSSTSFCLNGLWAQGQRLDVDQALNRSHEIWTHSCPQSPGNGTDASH
The note with it: releases testosterone, nandrolone, oxandrolone from SHBG.

The subject of the next data set is brain oxytocin. The settings on record: topically applied vaginally.
Data set [1] concerns FSH (Follicle Stimulating Hormone) and LH (Leutinizing Hormone) release. The settings on record: nandrolone alone.

In the case of `C[C@]12Cc3c[nH]nc3C[C@@H]1CC[C@@H]1[C@@H]2CC[C@@]2(C)[C@H]1CC[C@]2(C)O` [stanozolol], the “net increase of androgens by release from SHBG” value at SHBG is on record as “four-fold”. The “effect on brain oxytocin” value in the data set on brain oxytocin is reported as “increases brain oxytocin; also recorded: raises a user's oxytocin levels”. As to `C[C@]12CC[C@H]3[C@@H](CCC4=CC(=O)CC[C@@H]43)[C@@H]1CC[C@@H]2O` [nandrolone], the “effect on FSH and LH release from the pituitary” value in data set [1] is recorded as “suppresses”.
